Our source for the IC50 values is US20210284638A1 (Saint Louis University, priority 2018, published 2021).

pIC50: −log10 of the molar value. Counter-ions that a name gives are not always drawn.

Common to all, as to type: binding
Assay [1] has as its target T1, Recombinant human integrin αvβ1 (Homo sapiens, UniProt P05556+P06756).
T1 construct: purchased R&D Systems 6579-AV
In words: Solid Phase Receptor Assay (SPRA) for αVβ1 function. The following applies: plate-bound human fibronectin. As to the method: B. Solid Phase Receptor Assay (SPRA) for αVβ1 Function
(§1) Wells were washed 3 times with 150 μL TBS+ and then 150 μL of blocking buffer (TBS+ with 1% bovine serum albumin, Sigma A7906) was added. The plate was incubated for 1 hr at 37° C. and then washed 3× with TBS+ buffer. […] Compounds were diluted to 20 μM and 1 μL was added to each well of the plate according to a standard template with each sample repeated in triplicate. After incubation for two hours at room temperature, the plate was washed 3× with 150 μL of TBS+ buffer. To each well, 50 μL of biotinylated anti-αV antibody (R&D Systems, BAF1219) at 1 μg/mL in TBS+/0.1% BSA were added and the plate covered and incubated for 1 hr at room temperature. After washing the plate 3× with 150 μL of TBS+ buffer, 50 μL of streptavidin-conjugated horseradish peroxidase (R&D Systems, DY998) diluted in TBS+ blocking buffer were added to the wells and the plate incubated for 20 min at room temperature. The plate was washed 3× with TBS+ buffer followed by 50 μL of TMB substrate (Sigma, T4444) added to each well in the dark and the plate incubated for 25 min at room temperature. 25 μL of 1.0 M phosphoric acid was added as a stop solution and the plates were read at 450 nm using a Spectramax plate reader.

For assay [2], the target named is T2, Recombinant human integrin αVβ5 (Homo sapiens, UniProt P06756+P18084).
T2 construct: purchased R&D Systems 2528-AV
T2 sequence (P06756 31-992 limits assumed): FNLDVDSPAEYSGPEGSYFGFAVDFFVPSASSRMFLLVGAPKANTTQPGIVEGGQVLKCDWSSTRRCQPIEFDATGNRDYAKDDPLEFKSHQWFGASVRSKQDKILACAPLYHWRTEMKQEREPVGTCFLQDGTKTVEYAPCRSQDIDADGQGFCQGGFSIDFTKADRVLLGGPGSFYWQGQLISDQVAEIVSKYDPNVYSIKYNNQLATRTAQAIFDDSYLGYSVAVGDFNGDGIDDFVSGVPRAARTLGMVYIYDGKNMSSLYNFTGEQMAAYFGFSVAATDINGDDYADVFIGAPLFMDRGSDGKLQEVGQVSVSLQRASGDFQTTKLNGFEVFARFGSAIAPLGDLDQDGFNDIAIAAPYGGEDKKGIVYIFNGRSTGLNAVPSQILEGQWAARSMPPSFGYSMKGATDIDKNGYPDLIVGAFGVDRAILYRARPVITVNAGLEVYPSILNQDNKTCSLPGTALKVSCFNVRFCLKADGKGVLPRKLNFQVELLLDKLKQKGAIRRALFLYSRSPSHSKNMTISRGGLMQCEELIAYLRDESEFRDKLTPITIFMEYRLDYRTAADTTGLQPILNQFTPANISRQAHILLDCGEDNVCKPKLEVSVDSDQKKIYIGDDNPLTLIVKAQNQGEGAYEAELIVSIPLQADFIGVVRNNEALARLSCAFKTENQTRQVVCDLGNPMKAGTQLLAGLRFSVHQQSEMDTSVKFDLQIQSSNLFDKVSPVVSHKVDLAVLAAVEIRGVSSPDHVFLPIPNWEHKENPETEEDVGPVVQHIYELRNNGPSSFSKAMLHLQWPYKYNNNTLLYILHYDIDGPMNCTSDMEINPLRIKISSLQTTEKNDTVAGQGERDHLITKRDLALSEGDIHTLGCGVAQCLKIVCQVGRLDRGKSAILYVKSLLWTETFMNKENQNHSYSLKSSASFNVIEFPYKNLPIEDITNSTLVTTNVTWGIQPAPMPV
T2 sequence (P18084 24-719 limits assumed): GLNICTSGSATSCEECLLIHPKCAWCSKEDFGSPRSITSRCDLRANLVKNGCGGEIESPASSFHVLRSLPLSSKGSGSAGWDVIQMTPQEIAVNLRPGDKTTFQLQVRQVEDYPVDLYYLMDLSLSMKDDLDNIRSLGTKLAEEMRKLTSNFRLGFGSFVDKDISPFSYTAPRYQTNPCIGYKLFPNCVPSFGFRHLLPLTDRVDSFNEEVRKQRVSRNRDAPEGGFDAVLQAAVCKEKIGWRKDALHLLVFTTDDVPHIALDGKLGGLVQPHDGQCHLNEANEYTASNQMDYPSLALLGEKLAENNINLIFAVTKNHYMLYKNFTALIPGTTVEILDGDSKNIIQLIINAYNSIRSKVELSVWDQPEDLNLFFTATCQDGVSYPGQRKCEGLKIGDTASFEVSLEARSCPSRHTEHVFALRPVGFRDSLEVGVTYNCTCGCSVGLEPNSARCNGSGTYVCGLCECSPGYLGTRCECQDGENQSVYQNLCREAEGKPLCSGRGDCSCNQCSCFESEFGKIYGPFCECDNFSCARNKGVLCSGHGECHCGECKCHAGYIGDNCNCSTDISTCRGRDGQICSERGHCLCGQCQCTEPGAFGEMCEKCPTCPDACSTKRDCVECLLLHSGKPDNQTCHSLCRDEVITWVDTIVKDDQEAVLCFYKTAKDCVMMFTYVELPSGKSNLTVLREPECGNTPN
In words: Solid Phase Receptor Assay (SPRA) for αVβ5 function. The following applies: plate-bound human vitronectin. Here is the method:
D. Solid Phase Receptor Assay (SPRA) for αVβ5 Function
as §1, with “μM and then 1 μL” for “μM and 1 μL”, “well, 50 μl of biotinylated” for “well, 50 μL of biotinylated”, “BAF1219) at 0.5 μg/mL in” for “BAF1219) at 1 μg/mL in”, “TBS+/0.1% BSA at 0.5 μg/mL were added” for “TBS+/0.1% BSA were added”, “TMB substrate (Sigma T4444) added” for “TMB substrate (Sigma, T4444) added”, “incubated for 5 min at” for “incubated for 25 min at”

The target of assay [3] is T3, Recombinant human integrin αVβ6 (Homo sapiens, UniProt P06756+P18564).
T3 construct: purchased R&D Systems 3817-AV
T3 sequence (P06756 31-992 limits assumed): as the sequence (P06756 31-992 limits assumed) above
T3 sequence (P18564 22-707 limits assumed): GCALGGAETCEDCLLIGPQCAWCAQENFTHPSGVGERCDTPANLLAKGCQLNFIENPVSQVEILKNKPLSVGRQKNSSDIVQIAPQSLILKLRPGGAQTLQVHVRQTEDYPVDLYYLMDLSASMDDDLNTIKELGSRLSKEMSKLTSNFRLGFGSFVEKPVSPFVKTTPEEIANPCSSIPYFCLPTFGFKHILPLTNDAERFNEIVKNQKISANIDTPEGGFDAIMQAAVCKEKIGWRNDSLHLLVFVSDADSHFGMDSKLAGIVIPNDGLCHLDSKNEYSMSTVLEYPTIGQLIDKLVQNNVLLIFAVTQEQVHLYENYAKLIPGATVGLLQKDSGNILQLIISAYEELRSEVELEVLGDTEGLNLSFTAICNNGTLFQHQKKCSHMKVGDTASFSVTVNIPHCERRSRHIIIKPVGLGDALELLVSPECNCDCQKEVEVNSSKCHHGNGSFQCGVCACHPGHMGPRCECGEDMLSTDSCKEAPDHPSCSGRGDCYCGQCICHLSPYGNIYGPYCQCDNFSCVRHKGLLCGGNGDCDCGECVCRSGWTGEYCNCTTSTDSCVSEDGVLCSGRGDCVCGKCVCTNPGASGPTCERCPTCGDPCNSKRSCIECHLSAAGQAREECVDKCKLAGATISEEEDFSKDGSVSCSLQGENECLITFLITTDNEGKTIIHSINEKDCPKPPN
In words: Solid Phase Receptor Assay (SPRA) for αVβ6 function. The conditions noted are these: plate-bound human LAP. Here is the method:
E. Solid Phase Receptor Assay (SPRA) for αVβ6 Function
Wells were washed 3 times with 150 μL TBS+, and then 150 μL of blocking buffer (TBS+ with 1% bovine serum albumin, Sigma A7906) was added. The plate was incubated for 1 hr at 37° C., and then washed 3× with TBS+ buffer. […] Compounds were diluted to 20 μM and then 1 μL was added to each well of the plate according to a standard template with each sample repeated in triplicate. After incubation for two hours at room temperature, the plate was washed 3× with 150 μL of TBS+ buffer. To each well, 50 μL of biotinylated anti-αV antibody (R&D Systems, BAF1219) at 0.5 μg/mL in TBS+/0.1% BSA were added and the plate was covered and incubated for 1 hr at room temperature. After washing the plate 3× with 150 μL of TBS+ buffer, 50 μL of streptavidin-conjugated horseradish peroxidase (R&D Systems, DY998) diluted in TBS+ blocking buffer were added to the wells and the plate incubated for 20 min at room temperature. The plate was washed 3× with TBS+ buffer followed by 50 μL of TMB substrate (Sigma T4444) added to each well in the dark and the plate incubated for 10 min at room temperature. 25 μL of 1.0 M phosphoric acid was added as a stop solution and the plates were read at 450 nm using a Spectramax plate reader.

For assay [4], the target named is T4, Recombinant human integrin αVβ8 (Homo sapiens, UniProt P06756+P26012).
T4 construct: purchased R&D Systems 4135-AV
T4 sequence (P06756 31-992 limits assumed): as the sequence (P06756 31-992 limits assumed) above
T4 sequence (P26012 43-684 limits assumed): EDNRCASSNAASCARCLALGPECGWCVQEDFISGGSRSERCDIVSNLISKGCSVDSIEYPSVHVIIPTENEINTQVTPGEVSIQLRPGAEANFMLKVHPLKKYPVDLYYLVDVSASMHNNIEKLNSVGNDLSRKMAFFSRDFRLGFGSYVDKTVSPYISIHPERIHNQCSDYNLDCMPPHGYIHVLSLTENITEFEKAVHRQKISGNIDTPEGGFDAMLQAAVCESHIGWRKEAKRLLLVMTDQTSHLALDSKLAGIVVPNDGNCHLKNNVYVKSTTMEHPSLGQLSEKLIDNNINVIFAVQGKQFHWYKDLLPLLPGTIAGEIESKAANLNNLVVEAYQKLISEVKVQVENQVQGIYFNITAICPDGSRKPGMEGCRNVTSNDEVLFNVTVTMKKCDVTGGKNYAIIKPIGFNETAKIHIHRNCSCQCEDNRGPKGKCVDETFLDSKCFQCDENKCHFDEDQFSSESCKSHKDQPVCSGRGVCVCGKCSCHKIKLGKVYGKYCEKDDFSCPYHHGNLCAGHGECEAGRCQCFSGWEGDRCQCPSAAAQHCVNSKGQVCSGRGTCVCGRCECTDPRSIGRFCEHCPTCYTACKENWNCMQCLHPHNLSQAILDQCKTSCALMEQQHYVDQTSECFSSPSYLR
In words: Solid Phase Receptor Assay for αVβ8 function. The following applies: plate-bound human LAP; read-out: αVβ8 SPRA IC50. As to the method:
F. Solid Phase Receptor Assay (SFRA) for αVβ8 Function
Wells were washed 3 times with 150 μL TBS+ and then 150 μL of blocking buffer (TBS+ with 1% bovine serum albumin, Sigma A7906) was added. The plate was incubated for 1 hr at 37° C. and then washed 3× with TBS+. […] Compounds were diluted to 20 μM and 1 μL was added to each well of the plate according to a standard template with each sample repeated in triplicate. After incubation for two hours at room temperature, the plate was washed 3× with 150 μL of TBS+. To each well, 50 μL of biotinylated anti-αV antibody (R&D Systems, BAF1219) at 1 μg/mL in TBS+/0.1% BSA were added and the plate was covered and incubated for 1 hr at room temperature. After washing the plate 3× with 150 μL of TBS+ buffer, 50 μL of streptavidin-conjugated horseradish peroxidase (R&D Systems, DY998) diluted in TBS+ blocking buffer were added to the wells and the plate incubated for 20 min at room temperature. The plate was washed 3× with TBS+ followed by 50 μL of TMB substrate (Sigma T4444) added to each well in the dark and the plate incubated for 10 min at room temperature. 25 μL of 1.0 M phosphoric acid was added as a stop solution and the plates were read at 450 nm using a Spectramax plate reader.

T1 sequence (P06756 31-992 limits assumed): as the sequence (P06756 31-992 limits assumed) above
T1 sequence (P05556 21-728 limits assumed): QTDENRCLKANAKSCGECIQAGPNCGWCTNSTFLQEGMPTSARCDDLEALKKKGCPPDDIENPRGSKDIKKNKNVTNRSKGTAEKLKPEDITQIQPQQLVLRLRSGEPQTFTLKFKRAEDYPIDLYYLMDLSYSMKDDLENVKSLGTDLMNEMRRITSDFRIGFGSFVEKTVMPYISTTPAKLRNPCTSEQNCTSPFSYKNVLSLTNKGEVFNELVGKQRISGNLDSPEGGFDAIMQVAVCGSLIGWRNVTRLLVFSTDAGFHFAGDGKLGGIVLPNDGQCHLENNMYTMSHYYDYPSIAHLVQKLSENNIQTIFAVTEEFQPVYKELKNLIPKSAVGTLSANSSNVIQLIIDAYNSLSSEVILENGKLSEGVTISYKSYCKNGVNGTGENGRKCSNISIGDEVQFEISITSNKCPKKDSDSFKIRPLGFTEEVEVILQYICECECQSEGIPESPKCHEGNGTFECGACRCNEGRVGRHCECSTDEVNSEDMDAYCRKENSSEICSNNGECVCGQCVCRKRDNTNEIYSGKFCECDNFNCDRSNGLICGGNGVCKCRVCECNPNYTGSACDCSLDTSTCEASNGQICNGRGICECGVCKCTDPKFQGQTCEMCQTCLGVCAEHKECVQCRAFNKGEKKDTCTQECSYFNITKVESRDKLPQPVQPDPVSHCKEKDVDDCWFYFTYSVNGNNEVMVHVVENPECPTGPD

For orientation: pIC50 means the IC50 on a negative log10 scale, so that one unit is a factor of ten. Turning to `CC(C)(C)c1cc(C(CC(=O)O)Cc2csc(CCCc3ccc4c(n3)NCCC4)n2)cc(C2(C(F)F)CC2)c1` (stereo not shown) [Example 30, 3-[3-tert-butyl-5-[1-(difluoromethyl)cyclopropyl]phenyl]-4-[2-[3-(5,6,7,8-tetrahydro-1,8-naphthyridin-2-yl)propyl]thiazol-4-yl]butanoic acid], the negative-log IC50 (pIC50) is 8.30 in assay [1], 6.59 in assay [2], 6.57 in assay [3] and 7.60 in assay [4].

For `COc1ccc(C2=CCOCC2)cc1C(CC(=O)O)Cc1cc(OCCc2ccc3c(n2)NCCC3)n(C)n1` (stereo not shown) [Example 42], the negative logarithm of the IC50 (pIC50) in assay [1] was 8.70; in assay [2] it was 7.85; in assay [3] it was 7.77; in assay [4] it was 7.39.

As for `CC(C)(C)c1cc(C(CC(=O)O)Cc2csc(CCCc3ccc4c(n3)NCCC4)n2)cc(C(C)(C)C(F)(F)F)c1` (stereo not shown) [Example 31, 3-[3-tert-butyl-5-(2,2,2-trifluoro-1,1-dimethyl-ethyl)phenyl]-4-[2-[3-(5,6,7,8-tetrahydro-1,8-naphthyridin-2-yl)propyl]thiazol-4-yl]butanoic acid], the pIC50 in assay [1] was 8.10; in assay [2], 5.82; in assay [3] it was 5.77; in assay [4], 7.12.

With `Cn1nc(CC(CC(=O)O)c2cc(C(C)(C)C)ccc2Br)cc1OCCc1ccc2c(n1)NCCC2` (stereo not shown) [Example 17, 3-(2-bromo-5-(tert-butyl)phenyl)-4-(1-methyl-5-(2-(5,6,7,8-tetrahydro-1,8-naphthyridin-2-yl)ethoxy)-1H-pyrazol-3-yl)butanoic acid], the pIC50 is 7.85 in assay [1], 6.64 in assay [2], 5.72 in assay [3] and 6.96 in assay [4].

Consider `Cn1nc(CC(CC(=O)O)c2cc(Br)cc(S(F)(F)(F)(F)F)c2)cc1OCCc1ccc2c(n1)NCCC2` (stereo not shown) [Example 3, 3-[3-bromo-5-(pentafluoro-sulfanyl)phenyl]-4-[1-methyl-5-[2-(5,6,7,8-tetrahydro-1,8-naphthyridin-2-yl)ethoxy]pyrazol-3-yl]butanoic acid], for which the pIC50 is 7.92 in assay [1], 8.70 in assay [2], 7.27 in assay [3] and 7.89 in assay [4].

For `COc1ccc(C2=CCOCC2)cc1C(CC(=O)O)Cc1csc(CCCc2ccc3c(n2)NCCC3)n1` (stereo not shown) [Example 37, 3-[5-(3,6-dihydro-2H-pyran-4-yl)-2-methoxy-phenyl]-4-[2-[3-(5,6,7,8-tetrahydro-1,8-naphthyridin-2-yl)propyl]thiazol-4-yl]butanoic acid], the negative logarithm of the IC50 (pIC50) in assay [1] was 8.52; in assay [2], 7.43; in assay [3], 7.09; in assay [4], 7.08.

Consider `COc1ccc(C(CC(=O)O)Cc2cc(OCCc3ccc4c(n3)NCCC4)n(C)n2)cc1F` (stereo not shown) [Example 44, 3-(3-fluoro-4-methoxyphenyl)-4-(1-methyl-5-(2-(5,6,7,8-tetrahydro-1,8-naphthyridin-2-yl)ethoxy)-1H-pyrazol-3-yl)butanoic acid], for which the pIC50 in assay [1] is 8.49; in assay [2], 9.66; in assay [3], 7.36; in assay [4] it was 7.10.

With `Cn1nc(CC(CC(=O)O)c2cc(Cl)cc(C(C)(C)C#N)c2)cc1OCCc1ccc2c(n1)NCCC2` (stereo not shown) [Example 8, 3-(3-chloro-5-(2-cyanopropan-2-yl)phenyl)-4-(1-methyl-5-(2-(5,6,7,8-tetrahydro-1,8-naphthyridin-2-yl)ethoxy)-1H-pyrazol-3-yl)butanoic acid], the pIC50 in assay [1] was 8.70; in assay [2] it was 9.52; in assay [3] it was 7.44; in assay [4], 8.52.

With `CC(C)c1cc(C#N)cc(C(CC(=O)O)Cc2cc(OCCc3ccc4c(n3)NCCC4)n(C)n2)c1` (stereo not shown) [Example 2, 3-(3-cyano-5-isopropylphenyl)-4-(1-methyl-5-(2-(5,6,7,8-tetrahydro-1,8-naphthyridin-2-yl)ethoxy)-1H-pyrazol-3-yl)butanoic acid trifluoroacetic acid], the negative-log IC50 (pIC50) in assay [1] is 8.05; in assay [2] it was 9.52; in assay [3], 7.70; in assay [4] it was 8.15.

`COCC1(c2cc(C(CC(=O)O)Cc3csc(CCCc4ccc5c(n4)NCCC5)n3)cc(C(C)(C)C)c2)CCOCC1` (stereo not shown) [Example 32, 3-[3-tert-butyl-5-[4-(methoxymethyl)tetrahydropyran-4-yl]phenyl]-4-[2-[3-(5,6,7,8-tetrahydro-1,8-naphthyridin-2-yl)propyl]thiazol-4-yl]butanoic acid]: the pIC50 is 8.15 in assay [1], 6.62 in assay [2], 6.89 in assay [3] and 7.85 in assay [4].

For the molecule `Cn1nc(CC(CC(=O)O)c2cc3c(c(C(C)(C)C)c2)OCCO3)cc1OCCc1ccc2c(n1)NCCC2` (stereo not shown) [Example 16, 3-(8-(tert-butyl)-2,3-dihydrobenzo[b][1,4]dioxin-6-yl)-4-(1-methyl −5-(2-(5,6,7,8-tetrahydro-1,8-naphthyridin-2-yl)ethoxy)-1H-pyrazol-3-yl) butanoic acid], the pIC50 in assay [1] is 8.30; in assay [2] it was 9.15; in assay [3] it was 7.72; in assay [4], 7.39.

With `CC(C)(C)c1cc(C(CC(=O)O)Cc2cc(OCCc3ccc4c(n3)NCCC4)n(CC(F)(F)F)n2)cc(C(C)(C)C)c1` (stereo not shown) [Example 40, 3-(3,5-di-tert-butylphenyl)-4-(5-(2-(5,6,7,8-tetrahydro-1,8-naphthyridin-2-yl)ethoxy)-1-(2,2,2-trifluoroethyl)-1H-pyrazol-3-yl)butanoic acid trifluoroacetate], the negative logarithm of the IC50 (pIC50) is 8.52 in assay [1], 6.74 in assay [2], 6.10 in assay [3] and 7.52 in assay [4].

Take `CC(C)(C)c1ccc(C#N)c(C(CC(=O)O)Cc2csc(CCCc3ccc4c(n3)NCCC4)n2)c1` (stereo not shown) [Example 33, 3-(5-tert-butyl-2-cyano-phenyl)-4-[2-[3-(5,6,7,8-tetrahydro-1,8-naphthyridin-2-yl)propyl]thiazol-4-yl]butanoic acid]: the pIC50 is 8.70 in assay [1], 7.49 in assay [2], 6.82 in assay [3] and 8.10 in assay [4].
